Values quoted from earlier work as cited in patent publication US20190321435A1, “ACORUS GRAMINEUS AS A PHARMACOLOGICALLY ACTIVE NATURAL TREATMENT IN THE ADDICTION OF NICOTINE” (priority 2018, published 2019).

Tests used:
[1] = cited from earlier work
[2] = tested on: intravenous self-administration (IVSA) of nicotine; details: rodents; high-dose (Rauhut et al., 2003); cited from earlier work

SMILES	adverse effect of intravenous administration ([1]; administered intravenously)	first-pass hepatic metabolism ([1]; oral administration (swallowing))	self-administration of nicotine [2]
CN1CCc2cccc3c2[C@H]1Cc1ccc(O)c(O)c1-3 [apomorphine]	crystallization of the drug and lead to thrombus formation and pulmonary embolism	significant first-pass hepatic metabolism	–
CC(NC(C)(C)C)C(=O)c1cccc(Cl)c1 (stereo not drawn) [bupropion]	–	–	reduce self-administration of nicotine
